Key:
Assay type in all cases: in vivo
[1] = tested on: redroot pigweed (Amaranthus retroflexus, AMARE); experiment: Pre-emerge test, greenhouse herbicide activity screening; conditions: rated 14 days after application, 0 = no damage, 100 = complete death
Procedure, shortened: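 Herbicidal damage is scored 0 (none) to 100 (complete plant death) two weeks after a simulated field spray. Rates span 15–1000 g ai/ha, delivered in acetone at 187 l/ha. For post-emergence treatments, plants have 2–3 leaves and the spray carries 0.25% v/v non-ionic surfactant.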

[2] = tested on: barnyardgrass (Echinochloa crus-galli, ECHCG); experiment: as above; conditions: rated 14 days after application, 0 = no damage, 100 = complete death
Procedure, shortened: (§1)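 Sandy loam pots; pre-emerge: sown 1 d pre-spray, surface-watered after, then bottom-watered. Post-emerge: sown 8–21 d before, 2–3 leaf stage, + 0.25% v/v NIS, bottom-watered. Acetone, 187 l/ha track spray, 15–1000 g ai/ha. 0–100 injury score, day 14.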

[3] = tested on: common ragweed (Ambrosia artemisizfolia L., AMBEL); experiment: as above; conditions: rated 14 days after application, 0 = no damage, 100 = complete death
Procedure, shortened: as §1

[4] = tested on: green foxtail (Setaria viridis, SETVI); experiment: as above; conditions: rated 14 days after application, 0 = no damage, 100 = complete death
Procedure, shortened: as §1

[5] = tested on: ivyleaf morningglory (Ipomoea hederacea, IPOHE); experiment: as above; conditions: rated 14 days after application, 0 = no damage, 100 = complete death
Procedure, shortened: as §1

[6] = tested on: johnsongrass (Sorghum halepense, SORHA); experiment: as above; conditions: rated 14 days after application, 0 = no damage, 100 = complete death
Procedure, shortened: as §1

[7] = tested on: lambsquarters (Chenopodium album, CHEAL); experiment: as above; conditions: rated 14 days after application, 0 = no damage, 100 = complete death
Procedure, shortened: as §1

[8] = tested on: large crabgrass (Digitaria sanguinalis, DIGSA); experiment: as above; conditions: rated 14 days after application, 0 = no damage, 100 = complete death
Procedure, shortened: as §1

[9] = tested on: sicklepod (Cassia obtusifolia, CASOB); experiment: as above; conditions: rated 14 days after application, 0 = no damage, 100 = complete death
Procedure, shortened: as §1

[10] = tested on: velvetleaf (Abutilon theophrasti, ABUTH); experiment: as above; conditions: rated 14 days after application, 0 = no damage, 100 = complete death
Procedure, shortened: as §1

[11] = tested on: field corn (Zea mays L., var. Dekalb 535, CORN); experiment: Pre-emerge test, crop safety; conditions: rated 14 days after application, 0 = no damage, 100 = complete death
Procedure, shortened: (§2)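 Rating: 0–100 visual injury, 14 DAA. Application: acetone, 187 l/ha, 15–1000 g ai/ha, flat-fan track sprayer with nozzle 40–45 cm above soil or canopy. Post-emerge runs used 0.25% v/v surfactant on 2–3 leaf plants.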

[12] = tested on: upland rice (Oryza sp., var. Tebonnet, RICE); experiment: Pre-emerge test, crop safety; conditions: rated 14 days after application, 0 = no damage, 100 = complete death
Procedure, shortened: as §2

[13] = tested on: barnyardgrass (Echinochloa crus-galli, ECHCG); experiment: Post-emerge test, greenhouse herbicide activity screening; conditions: post-emerge, 14 days after application, rating scale 0-100
Procedure, shortened: (§3)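 Each test used a mechanized track sprayer delivering 187 l/ha of acetone solution at 15–1000 g ai/ha. Post-emerge foliage at 2–3 leaves was treated with added 0.25% v/v non-ionic surfactant and bottom-watered only. Injury was assessed on day 14, where 100 means total kill.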

[14] = tested on: common ragweed (Ambrosia artemisizfolia L., AMBEL); experiment: as above; conditions: post-emerge, 14 days after application, rating scale 0-100
Procedure, shortened: as §3

[15] = tested on: green foxtail (Setaria viridis, SETVI); experiment: as above; conditions: post-emerge, 14 days after application, rating scale 0-100
Procedure, shortened: as §3

[16] = tested on: ivyleaf morningglory (Ipomoea hederacea, IPOHE); experiment: as above; conditions: post-emerge, 14 days after application, rating scale 0-100
Procedure, shortened: as §3

[17] = tested on: johnsongrass (Sorghum halepense, SORHA); experiment: as above; conditions: post-emerge, 14 days after application, rating scale 0-100
Procedure, shortened: as §3

[18] = tested on: lambsquarters (Chenopodium album, CHEAL); experiment: as above; conditions: post-emerge, 14 days after application, rating scale 0-100
Procedure, shortened: as §3

[19] = tested on: large crabgrass (Digitaria sanguinalis, DIGSA); experiment: as above; conditions: post-emerge, 14 days after application, rating scale 0-100
Procedure, shortened: as §3

[20] = tested on: redroot pigweed (Amaranthus retroflexus, AMARE); experiment: as above; conditions: post-emerge, 14 days after application, rating scale 0-100
Procedure, shortened: as §3

[21] = tested on: sicklepod (Cassia obtusifolia, CASOB); experiment: as above; conditions: post-emerge, 14 days after application, rating scale 0-100
Procedure, shortened: as §3

[22] = tested on: velvetleaf (Abutilon theophrasti, ABUTH); experiment: as above; conditions: post-emerge, 14 days after application, rating scale 0-100
Procedure, shortened: as §3

[23] = tested on: field corn (Zea mays L., var. Dekalb 535, CORN); experiment: Post-emerge test, crop safety; conditions: post-emerge, 14 days after application, rating scale 0-100
Procedure, shortened: as §1

[24] = tested on: upland rice (Oryza sp., var. Tebonnet, RICE); experiment: Post-emerge test, crop safety; conditions: post-emerge, 14 days after application, rating scale 0-100
Procedure, shortened: as §1

COc1c(Cl)cc(F)c(-n2c(=O)cc(C(F)(F)F)n(C)c2=O)c1NC(=O)c1ccc(Cl)c(Cl)c1 [2-59]
65: phytotoxicity rating SORHA ([17]; 250 g ai/ha)
9: Pre-emerge Herbicidal Activity, phytotoxicity rating (0-100), ECHCG ([2]; 250 g ai/ha)
20: Pre-emerge Herbicidal Activity, phytotoxicity rating (0-100), IPOHE ([5]; 63 g ai/ha) | phytotoxicity rating SETVI ([15]; 63 g ai/ha) | phytotoxicity rating SETVI ([15]; 250 g ai/ha)
10: Pre-emerge phytotoxicity rating (0-100), crop damage, CORN ([11]; 63 g ai/ha)
100: Pre-emerge Herbicidal Activity, phytotoxicity rating (0-100), AMARE ([1]; 63 g ai/ha) | Pre-emerge Herbicidal Activity, phytotoxicity rating (0-100), AMARE ([1]; 250 g ai/ha) | Pre-emerge Herbicidal Activity, phytotoxicity rating (0-100), SETVI ([4]; 63 g ai/ha) | Pre-emerge Herbicidal Activity, phytotoxicity rating (0-100), SETVI ([4]; 250 g ai/ha) | Pre-emerge Herbicidal Activity, phytotoxicity rating (0-100), IPOHE ([5]; 250 g ai/ha) | Pre-emerge Herbicidal Activity, phytotoxicity rating (0-100), CHEAL ([7]; 63 g ai/ha) | Pre-emerge Herbicidal Activity, phytotoxicity rating (0-100), CHEAL ([7]; 250 g ai/ha) | Pre-emerge Herbicidal Activity, phytotoxicity rating (0-100), DIGSA ([8]; 250 g ai/ha) | Pre-emerge Herbicidal Activity, phytotoxicity rating (0-100), CASOB ([9]; 250 g ai/ha) | Pre-emerge Herbicidal Activity, phytotoxicity rating (0-100), ABUTH ([10]; 63 g ai/ha) | Pre-emerge Herbicidal Activity, phytotoxicity rating (0-100), ABUTH ([10]; 250 g ai/ha) | phytotoxicity rating AMBEL ([14]; 250 g ai/ha) | phytotoxicity rating IPOHE ([16]; 63 g ai/ha) | phytotoxicity rating IPOHE ([16]; 250 g ai/ha) | phytotoxicity rating CHEAL ([18]; 63 g ai/ha) | phytotoxicity rating CHEAL ([18]; 250 g ai/ha) | phytotoxicity rating AMARE ([20]; 63 g ai/ha) | phytotoxicity rating AMARE ([20]; 250 g ai/ha) | phytotoxicity rating CASOB ([21]; 250 g ai/ha) | phytotoxicity rating ABUTH ([22]; 63 g ai/ha) | phytotoxicity rating ABUTH ([22]; 250 g ai/ha)
70: Pre-emerge Herbicidal Activity, phytotoxicity rating (0-100), DIGSA ([8]; 63 g ai/ha) | Pre-emerge phytotoxicity rating (0-100), crop damage, CORN ([11]; 250 g ai/ha) | phytotoxicity rating AMBEL ([14]; 63 g ai/ha) | phytotoxicity rating CORN ([23]; 63 g ai/ha) | phytotoxicity rating RICE ([24]; 63 g ai/ha)
25: Pre-emerge phytotoxicity rating (0-100), crop damage, RICE ([12]; 63 g ai/ha)
40: Pre-emerge Herbicidal Activity, phytotoxicity rating (0-100), ECHCG ([2]; 63 g ai/ha) | Pre-emerge Herbicidal Activity, phytotoxicity rating (0-100), SORHA ([6]; 63 g ai/ha)
80: phytotoxicity rating CORN ([23]; 250 g ai/ha) | phytotoxicity rating RICE ([24]; 250 g ai/ha)
30: Pre-emerge Herbicidal Activity, phytotoxicity rating (0-100), CASOB ([9]; 63 g ai/ha) | phytotoxicity rating ECHCG ([13]; 250 g ai/ha) | phytotoxicity rating SORHA ([17]; 63 g ai/ha) | phytotoxicity rating DIGSA ([19]; 250 g ai/ha)
90: Pre-emerge Herbicidal Activity, phytotoxicity rating (0-100), AMBEL ([3]; 250 g ai/ha) | Pre-emerge Herbicidal Activity, phytotoxicity rating (0-100), SORHA ([6]; 250 g ai/ha) | phytotoxicity rating CASOB ([21]; 63 g ai/ha)
50: Pre-emerge Herbicidal Activity, phytotoxicity rating (0-100), AMBEL ([3]; 63 g ai/ha)
0: phytotoxicity rating ECHCG ([13]; 63 g ai/ha) | phytotoxicity rating DIGSA ([19]; 63 g ai/ha)
75: Pre-emerge phytotoxicity rating (0-100), crop damage, RICE ([12]; 250 g ai/ha)

— US6355799B1, “Substituted benzene compounds, process for their preparation, and herbicidal and defoliant compositions containing them” (ISK Americas Incorporated, priority 1997, dated 2002)
